Laboratory results from paper PMC3747139 (PLoS ONE, 2013).
Values joined by “and” are separate entries in the source; they are usually repeats but may differ in a detail not shown here. Equal values may be shown once. Marks after values point to notes of the source that are not given here.

How the values were obtained:
[1] = system: telomerase reverse transcriptase (TERT); assay: Western blot of telomerase expression in tumor tissues; format: in vivo, C57BL6/J mice; settings: tumor tissue of tumor-induced mice, 216 h of treatment
Experimental: Western blot analysis was carried out to study the expression of telomerase in ligand treated as well as untreated tissues of tumor-induced mice. Total proteins were extracted from the tumor tissues into solubilisation buffer (7 M urea, 2 M thiourea, 4% CHAPS, 18 mM Tris–HCl, 14 mM Trizma base, 2 tablets EDTA protease inhibitor, 0.2% Triton-X, 50 mM DTT) following homogenization and sonication. Extracted proteins were quantified against BSA standard using an Amido black assay method. 40 µg of total protein obtained from different time points (48 h, 72 h and 216 h) were electrophoresed on a 10% SDS-PAGE and transferred onto a PVDF membrane using wet-transfer method. Immunoblot analysis of the telomerase reverse transcriptase (TERT) expression was performed using anti-TERT antibody (Pierce, Thermo Scientific) as primary antibody and anti-rabbit HP conjugated secondary antibodies (Pierce, Thermo Scientific). The immuno- blots were scanned using the ECL detection method to estimate the telomerase expression levels in the tissues of tumor-induced mice. The endogenous β-actin expression level was considered as control.

B16F10 cells [2] = assay: Flow cytometry cell cycle analysis (PI); format: cell-based, human; settings: for cells in G0/G1 phase / cells in G2/M phase / cells in S phase / cells in Sub G1 phase: 200 µM L1, 125 µM L2, 50 µM L3, 3 h
Experimental: Since MTT and cell culture assays yielded encouraging results with B16F10 cells they were used for confocal and flow cytometry experiments. After 90% confluence, the cells were treated with 200 µM, 125 µM and 50 µM of L1, L2, L3 respectively, for 3 h. 1×10^6 cells were washed with 2× binding buffer and resuspended in 100 µl binding buffer and Annexin-V-FITC (1.0 µg). The cells were then incubated at room temperature for 10 min, followed by the addition of 400 µl of binding buffer containing 1 µl of Propidium Iodide (PI). Stained cells were analyzed using FACS Calibur Flow Cytometer from B.D. Biosceinces (USA). Annexin-V-FITC and PI labelled cells were excited using 488 nm solid-state laser and fluorescence emission intensity was captured using 530/30 and 585/42 band pass filters respectively.

[3] = system: HQF DNA (human quadruplex forming DNA), d(TTAGGG)4 (DNA, G4) TTAGGGTTAGGGTTAGGGTTAGGG; assay: SYBR Green fluorescence melting; settings: 1 µM ligand, 5 µM DNA, melting buffer not stated
B16F10 melanoma cells [4] = assay: Preclinical study: survival of tumor-induced mice; format: in vivo, C57BL6/J mice; settings: 200 µM L1, 125 µM L2, 50 µM L3 on alternate days for 2 weeks
Experimental: (§1) C57BL6/J mice were used from the animal house facility located at CCMB (Hyderabad, India). All animal experimental studies were carried out in strict accordance with the recommendations in the guide for the care and use of laboratory animals of Centre for Cellular and Molecular Biology (CCMB). All the animal experimental protocols were approved by the Institutional Animal Ethical Committee (IAEC) of Centre for Cellular and Molecular Biology (CCMB with Permit number: CPCSEA 20/1999, Ministry of Environment and Forest, Government of India).The protocol was approved by the Institutional Animal Ethical Committee (IAEC) of CCMB (Protocol number: IAEC 16/2012). All the surgery was performed under sodium pentobarbital anaesthesia, and all efforts were made to minimize suffering. C57BL6/J mice, 6–8 weeks old, were subcutaneously injected with 2×10^5 B16F10 melanoma cells, in the […] region. After the tumor attained a size of 500–1000 mm^3 (≈9 days following cancer cell implantation), mice were grouped and treated as follows.
(§2) Group (i) was treated with vehicle control (4 mice), group (ii) with 200 µM of L1 (4 mice), group (iii) with 125 µM of L2 (4 mice) and group (iv) with 50 µM of L3 (4 mice). These experiments were repeated thrice and mean values were considered. Size of tumor was measured every day at a fixed time. The tumor sizes were calculated using the formula (0.5 ab^2), where ‘a’ was the largest dimension and ‘b’ was the smallest dimension of the tumor. The experiment was terminated when the average tumor volume of the control/treated group was 10000–12000 mm^3.

B16F10 melanoma cells [5] = assay: Preclinical study: tumor size in tumor-induced mice; format: in vivo; settings: C57BL6/J mice with B16F10 tumor; 200 µM L1, 125 µM L2, 50 µM L3; end of experiment
Experimental: as §1, §2

B16F10 cells [6] = assay: MTT assay; format: cell-based, human; settings: Mus musculus, B16-F10, B16F10 cells, 24 h and 48 h, read-out: half maximal inhibitory concentration (IC50)
Experimental: Normal human cell lines (CRL-2115, CRL-2120) as well as human cancer cell lines (NCM-460, He La, MCF-7, B16F10 and A549) were cultured according to the supplier's recommendations. To study the cytotoxicity of the ligands, after 80% confluence, cells were trypsinized with 0.1% trypsin-EDTA and harvested by centrifugation at 500× g. Serial dilutions of cells were made from 1×10^6 to 1×10^3 cells per ml. The cells were seeded in triplicate in a 96 well plate. The suspended cells were treated with 50 µM, 100 µM, 150 µM, 200 µM, 250 µM and 300 µM of each ligand, at two different time points (24 h and 48 h). Normal as well as tumor cells to which no ligand was added served as control. After incubation, MTT (100 µl, 5 mg mL^−1) solution was added to each well and the cell viability was determined by measuring the ability of cells to transform MTT to a purple coloured formazan dye. The absorbance of samples at 570 nm was measured using a UV-Visible spectrophotometer. Percentage of viable cells was calculated using the formula given below. [drawing 1] Where the OD570 (sample) corresponds to absorbance obtained from the wells treated with ligands and the OD570 (control) represents the absorbance from the wells in which no ligand was added.

HQF DNA [d(T2AG3)4] = assay: SYBR Green melting study with HQF DNA; format: binding, human; settings: for Tm of HQF DNA with ligand: 5 µM HQF DNA, 1 µM ligand, HQF DNA alone 27°C; for Tm: melting temperature of HQF DNA (5 µM) in presence of 1 µM ligand
Experimental: When quadruplex DNA melts to form ssDNA structure, SG fluorescence intensity gradually reduces as SG has no binding to ssDNA. Each time, 5 µM of HQF DNA [d(T2AG3)4)], 5 µM of dsDNA (prepared by mixing equal concentration of poly-dA-dT and poly-dT-dA), 5 µM ssDNA ( poly dT alone) and 1 µM of each ligand was incubated at 4°C for 16 h, and used for melting studies. […] Affinity, stoichiometry and thermodynamic parameters for quadruplex-ligand complex were studied with 60 µM of ligand and 10 µM of HQF DNA using Microcal VP-ITC (Northampton, MA, USA). Ligand addition to G-quadruplex DNA was made every 180 seconds. Titration experiments were performed thrice and blank correction was made each time to minimize error.

Row | SMILES | percentage of reduction of telomerase expression [1] [%] | cells in G0/G1 phase (B16F10 cells [2]) | cells in G2/M phase (B16F10 cells [2]) | cells in S phase (B16F10 cells [2]) | cells in Sub G1 phase (B16F10 cells [2]) | ΔTm ([3]; derived from two Tm (28 and 27 °C)) [°C] | Number of days survived (B16F10 melanoma cells [4]) | survival period of treated mice (B16F10 melanoma cells [4]) | tumor size (B16F10 melanoma cells [5]) | IC50 (B16F10 cells [6]) [µM] | Tm of HQF DNA with ligand (HQF DNA [d(T2AG3)4]) [°C] | Tm (HQF DNA [d(T2AG3)4]) | ΔTm ([3]; derived from two Tm (42 and 27 °C)) [°C] | subG1 cell population enhanced compared to other nucleoside ligands (B16F10 cells [2]; L3 versus L1 and L2) | ΔTm ([3]; derived from two Tm (52 and 27 °C)) [°C]
1 | Cc1cn([C@H]2C[C@H](N=[N+]=[N-])[C@@H](CO)O2)c(=O)[nH]c1=O [Ligand L1, 1-(4-azido 5-(hydroxylmethyl)tetrahydrofuran-2-yl)-5-methyl pyrimidi-ne-2,4(1H,3H)-dione, reference compound] | 80 | 26.94% | 5.58% and 05.58% | 06.38% | 61.10% | 1 | 25 (±5) days | ~4 weeks | 6000–8000 mm^3 | ~200 | 28 | 28 ^o C | – | – | –
2 | Cc1cn([C@H]2C[C@H](n3cc(-c4ccccc4)nn3)[C@@H](CO)O2)c(=O)[nH]c1=O [Ligand L2] | 88 | 07.78% | 1.93% and 01.93% | 8.77% and 08.77% | 81.5% and 81.52% | – | 31 (±4) days | ~5 weeks | 6000–8000 mm^3 | ~125 | 42 | 42 ^o C | 15 | – | –
3 | Cc1cn([C@H]2C[C@H](n3cc(-c4ccc(Cl)cc4)nn3)[C@@H](CO)O2)c(=O)[nH]c1=O [Ligand L3, 1-(4-(4-(4-chlorophenly)-1H-1,2,3-triazole-1-yl)-5-(hydroxymethyl)tetrahydrofuran-2-yl)-5-methylpyrimidine-2,3(1H,3H)-dione] | 95 | 4.46% and 04.46% | 0.91% and 00.91% | 5.36% and 05.36% | 89.27% | – | 40 (±6) days | about 6 weeks | ≈ 4500 mm^3 | 50 | 52 | 52 ^o C | – | 10–30% | 25
